From US6936630B2, “Substituted 1-aryl-3-heteroaryl-thioureas and substituted 1-aryl-3-heteroaryl-isothioureas as antiatherosclerotic agents” (Wyeth, priority 1997, dated 2005)

Legend:
serum HDL cholesterol = assay: in vivo test procedure measuring elevation of HDL cholesterol levels in cholesterol/cholic acid-fed rats; set-up: species or system Male Sprague-Dawley rats; settings: rats fed diet with 0.25% cholic acid and 1.0% cholesterol, 100 mg/kg/day in diet for 8 days, serum HDL cholesterol by FPLC; for change in vivo at 100 mg/kg/day: Rattus norvegicus, feed or water, 192 h, read-out: HDL Cholesterol Level Increase (%)
Description: Representative compounds according to the present invention were evaluated in an in vivo standard pharmacological test procedure which measured the ability of the compounds to elevate HDL cholesterol levels. The following describes the procedure used and results obtained. Male Sprague-Dawley rats weighing 200-225 g were housed two per cage and fed Purina Rodent Chow Special Mix 5001-S supplemented with 0.25% cholic acid and 1.0% cholesterol and water ad libitum for 8 days. Each test substance was administered to a group of six rats fed the same diet with the test diet mixed in as 0.005-0.1% of the total diet. Body weight and food consumption were recorded prior to diet administration and at termination. The test substances were administered at a dosage of 100 mg/kg/day.
At termination, blood was collected from anesthetized rats and the serum was separated by centrifugation. Total serum cholesterol was assayed using the Sigma Diagnostics enzymatic kit for the determination of cholesterol, Procedure No. 352, modified for use with ninety-six well microtiter plates. After reconstitution with water the reagent contains 300 U/l cholesterol oxidase, 100 U/l cholesterol esterase, 1000 U/l horse radish peroxidase, 0.3 mmoles/l 4-aminoantipyrine and 30.0 mmoles/l p-hydroxybenzene sulfonate in a pH 6.5 buffer. In the reaction, cholesterol was oxidized to produce hydrogen peroxide which was used to form a quinoneimine dye. The concentration of dye formed was measured spectrophotometrically by absorbance at 490 nm after incubation at 25° C. for 30 minutes. The concentration of cholesterol was determined for each serum sample relative to a commercial standard from Sigma.
HDL cholesterol concentrations in serum were determined by separation of lipoprotein classes by fast protein liquid chromatography (FPLC) by a modification of the method of Kieft et al., J. Lipid Res., 32 (1991), 859-866. Using this methodology, […] of serum was injected onto Superose 12 and Superose 6 (available from Pharmacia), in series, with a column buffer of 0.05 M Tris (2-amino-2-hydroxymethyl-1,3-propanediol) and 0.15 M sodium chloride at a flow rate of 0.5 mL/min. The eluted sample was mixed on line with Boehringer-Mannheim cholesterol reagent pumped at 0.2 mL/min. The combined eluents were mixed and incubated on line through a knitted coil (available from Applied Biosciences) maintained at a temperature of 45° C. The eluent was monitored by measuring absorbance at 490 nm and gave a continous absorbance signal proportional to the cholesterol concentration. The relative concentration for each lipoprotein class was calculated as the percent of total absorbance. HDL cholesterol concentration in serum, was calculated as the percent of total cholesterol as determined by FPLC multiplied by the total serum cholesterol concentration.
Test compounds were administered at a dose of 100 mg/kg for 8 days.

melting point	Structure (SMILES)	change in vivo at 100 mg/kg/day (serum HDL cholesterol)	HDL Cholesterol Level Increase (%) (serum HDL cholesterol)
197 to 198 °C	Cc1ccc(Cl)cc1NC(=S)Nc1nccs1 [Example 1, 1-(5-Chloro-2-methyl-phenyl)-3-(thiazol-2-yl)-thiourea]	65%	–
–	Cc1ccc(Cl)cc1NC(=S)Nc1nc2ccccc2s1 [Example 2, 1-(Benzothiazol-2-yl)-3-(5-chloro-2-methyl-phenyl)-thiourea]	6%	–
–	Cc1ccc(Cl)cc1NC(=S)Nc1nc2ccc3ccccc3c2s1 [Example 3, 1-(5-Chloro-2-methyl-phenyl)-3-(naphtho[2,1-d]thiazol-2-yl)-thiourea]	0.3%	–
207 to 208 °C	Cc1coc(NC(=S)Nc2cc(Cl)ccc2C)n1 [Example 4, 1-(5-Chloro-2-methyl-phenyl)-3-(4-methyl-oxazol-2-yl)-thiourea]	158%	–
–	Cc1nnc(NC(=S)Nc2cc(Cl)ccc2C)s1 [Example 5, 1-(5-Chloro-2-methyl-phenyl)-3-(5-methyl-[1,3,4]thiadiazol-2-yl)-thiourea]	69%	–
217 to 218 °C	Cc1ccc(Cl)cc1NC(=S)Nc1ccn(C)n1 [Example 6, 1-(5-Chloro-2-methyl-phenyl)-3-(1-methyl-1H-pyrazol-3-yl)-thiourea]	-11%	–
221 to 222 °C	Cc1ccc(Cl)cc1NC(=S)Nc1cc[nH]n1 [Example 7, 1-(5-Chloro-2-methyl-phenyl)-3-(1H-pyrazol-3-yl)-thiourea]	97%	–
176 to 177 °C	Cc1ccc(Cl)cc1NC(=S)Nc1c(C)nn(C)c1C [Example 8, 1-(5-Chloro-2-methyl-phenyl)-3-(1,3,5-trimethyl-1H-pyrazol-4-yl)-thiourea]	110%	–
188 °C	Cc1csc(NC(=S)Nc2cc(Cl)ccc2C)n1 [Example 9, 1-(5-Chloro-2-methyl-phenyl)-3-(4-methyl-thiazol-2-yl)-thiourea]	79%	–
188 to 189 °C	Cc1ccc(Cl)cc1NC(=S)Nc1nc(C)c(C)s1 [Example 10, 1-(5-Chloro-2-methyl-phenyl)-3-(4,5-dimethyl-thiazol-2-yl)-thiourea]	41%	–
177 to 179 °C	CCOC(=O)Cc1csc(NC(=S)Nc2cc(Cl)ccc2C)n1 [Example 11, {2-[3-(5-Chloro-2-methyl-phenyl)-thioureido]-thiazol-4-yl}-acetic acid ethyl ester]	2%	–
187 to 188 °C (dec.)	Cc1cc(NC(=S)Nc2cc(Cl)ccc2C)sn1 [Example 12, 1-(5-Chloro-2-methyl-phenyl)-3-(3-methyl-isothiazol-5-yl)-thiourea]	134%	–
173 to 174 °C	Cc1nc2cc(NC(=S)Nc3cc(Cl)ccc3C)ccc2s1 [Example 13, 1-(5-Chloro-2-methyl-phenyl)-3-(2-methyl-benzothiazol-5-yl)-thiourea]	36%	–
–	CCc1nnc(NC(=S)Nc2cc(Cl)ccc2C)s1 [Example 14, 1-(5-Chloro-2-methyl-phenyl)-3-(5-ethyl-[1,3,4]thiadiazol-2-yl)-thiourea]	90%	–
201 to 202 °C	Cc1cccc(Cl)c1NC(=S)Nc1c(C)nn(C)c1C [Example 15, 1-(2-Chloro-6-methyl-phenyl)-3-(1,3,5-trimethyl-1H-pyrazol-4-yl)-thiourea]	58%	–
–	Cc1cc(Cl)ccc1NC(=S)Nc1c(C)nn(C)c1C [Example 16, 1-(4-Chloro-2-methyl-phenyl)-3-(1,3,5-trimethyl-1H-pyrazol-4-yl)-thiourea 0.12 solvate with acetic acid ethyl ester]	–	104%
214 °C (dec.)	Cc1coc(NC(=S)Nc2ccc(Cl)cc2C)n1 [Example 17, 1-(4-Chloro-2-methyl-phenyl)-3-(4-methyl-oxazol-2-yl)-thiourea]	134%	–
222 °C (dec.)	Cc1coc(NC(=S)Nc2c(C)cccc2Cl)n1 [Example 18, 1-(2-Chloro-6-methyl-phenyl)-3-(4-methyl-oxazol-2-yl)-thiourea]	193%	–
144 to 145 °C	CCN(C(=S)Nc1cc(Cl)ccc1C)c1c(C)nn(C)c1C [Example 19, 3-(5-Chloro-2-methyl-phenyl)-1-ethyl-1-(1,3,5-trimethyl-1H-pyrazol-4-yl)-thiourea]	79%	–
134 to 135 °C	CS/C(=N/c1c(C)nn(C)c1C)Nc1cc(Cl)ccc1C [Example 20, (E)-1-(5-Chloro-2-methyl-phenyl)-2-methyl-3-(1,3,5-trimethyl-1H-pyrazol-4-yl)-isothiourea]	35%	–
–	CCN(C(=Nc1cc(Cl)ccc1C)SC)c1c(C)nn(C)c1C.Cl [Example 21, 3-(5-Chloro-2-methyl-phenyl)-1-ethyl-2-methyl-1-(1,3,5-trimethyl-1H-pyrazol-4-yl)-isothiourea 1:1 salt with hydrochloric acid]	–	29%
